Measured values from patent publication US7662388B2, “Endogenous peptide and active subfragments thereof” (Innoventus Project AB, priority 2003, dated 2010).

Legend:
[1] = test system: T241 fibrosarcoma tumour vessels; assay: CD31 staining and stereological quantification of tumour vascular parameters; type: in vivo, mice
Procedure: (§1) Paraffin-sections of tumours from control- or HRGP-treated animals were immunohistochemically (IHC) stained for CD31 and Ki67 using a goat anti-mouse CD31 antibody (1506; Santa Cruz), diluted 1:500 and incubated at +4° C. over night, and a rat anti-mouse Ki67 antibody (TEC-3/M7249; DAKO) diluted 1:50 and incubated for 30 min. at room temperature, according to standard IHC procedures. Detection of apoptotic cells by the TUNEL-technique was performed using ApopTag™ (Intergen Company) according to the manufacturer's protocol. Stereological quantification of vascular parameters was performed as described earlier by Weibel et al (1979) and Gundersen et al (1988). Quantification of the relative number of Tunel- and Ki67-positive cells was calculated from approximately 3000 cells per tumour section, in three tumours from each treatment group. Significance at the level of P<0.05 was calculated using Students t-test.
Sections of paraffin-embedded tumours from control (IgG)- or HRGP-treated mice were immunohistochemically stained for CD31 expression to visualise the vessels. […] Stereological quantification of vascular parameters was performed as described earlier by Weibel et al (1979) and Gundersen et al (1988). This method of quantifying tumour angiogenesis relates the length, volume and surface area of the vessels to tumour volume.

T241 fibrosarcoma cells = assay: TUNEL and Ki67 staining of tumour sections; type: in vivo, mice
Procedure: as §1

primary BCE cells [2] = assay: comparative study pep2/pep3, chemotaxis; type: cell-based, bovine; conditions: 100 ng/ml, FGF-2 10 ng/ml
Procedure: Primary endothelial cells were starved over night in 0.5% normal calf serum. A migration assay was performed in a modified Boyden chamber as described earlier (Auerbach et al., 1991) using micropore polycarbonate filters (8 μm thick, 8 μm pore) coated with type-1 collagen solution at 100 μg/ml (Vitrogen 100, Collagen Corp). Cells were trypsinized and resuspended at 7.5×10^5 cells/ml in Dulbecco's modified essential medium (Invitrogen) containing 0.25% BSA and Trasylol at 1000 KIE. The cell suspension was added in the upper chamber and FGF-2 (10 ng/ml), HRGP (100 ng/ml), peptide 2 or 3 (50 ng/ml) in medium containing 0.25% BSA were added to the lower chamber. The peptides were dissolved in PBS containing a 10-fold molar excess (Zn:peptide) of Zn^2+-acetate. After 5 h at 37° C., cells that had migrated through the filter were stained with Giemsa and counted using the Easy Image Analysis software. All samples were analyzed in at least six wells for each treatment. Results of the study are illustrated in FIG. 7.

[3] = in vivo; cited from earlier work
[4] = test system: chicken chorioallantoic membrane (CAM); assay: chicken chorioallantoic membrane (CAM) angiogenesis assay; type: in vivo; conditions: FGF-2 or VEGF-A 0.2 mg per filter, HRGP 3 mg per filter, three days
Procedure: The effect of HRGP on anglogenesis was tested in the chicken chorioallantoic membrane (CAM) assay.
The conditions for the chorioallantoic membrane (CAM) assay followed essentially a previously described procedure (Friedlander et al (1995), Dixelius et al, (2000)). FGF-2 (Boehringer Mannheim) and VEGF-A (Peprotech) was used at 0.2 mg per filter and purified pHRGP or rHRGP at 3 mg per filter. The treated CAM's were inspected in a light microscope and the score, from 0 (low) to 3 (high) was based on the number of vessel branch points. Average values for 5-6 embryos were recorded.
A filter disc soaked in vehicle or growth factor, with or without HRGP, was placed on top of the CAM in the vicinity of a large vessel and incubated for three days. Treatment of the CAM with growth factors, such as FGF-2, stimulated angiogenesis (FIG. 1C; Table 1).

primary BCE cells [5] = assay: chemotaxis (migration) assay in modified Boyden chamber, BCE cells; type: cell-based, bovine
Procedure: The porcine aortic endothelial (PAE) cell line overexpressing FGF receptor-1 (FGFR-1) (Wennström et al 1992) was cultured in Ham's F12/10% fetal bovine serum (FCS) and NIH 3T3 murine fibroblasts were cultured in Dulbecco's modified medium (DMEM)/10% newborn calf serum (NCS). F12, DMEM and serum were bought from Life Technologies. Primary bovine adrenal cortex capillary endothelial (BCE) cells were cultured on gelatin-coated dishes in DMEM/10% NCS and 2 ng/ml FGF-2 (Boehringer Mannheim). For chemotaxis assays, both PAE and NIH 3T3 cells were serum-starved over night in 0.1% BSA and BCE cells in 0.5% NCS. Human embryonic kidney (HEK) 293-EBNA cells were cultured in DMEM/10% FCS. Approximately every second month they were given 0.25 mg/ml G418 (Calbiochem) to ensure positive selection of the EBNA-1 expressing cells.
A migration assay was performed in a modified Boyden chamber as described earlier (Auerbach et al., 1991) using micropore polycarbonate filters (8 μm thick, 8 μm pore) coated with type-1 collagen solution at 100 μg/ml (Vitrogen 100, Collagen Corp). BCE, PAE/FGFR-1 or NIH 3T3 cells were preincubated or not with HRGP (100 ng/ml) for 30 min, trypsinised and resuspended at a concentration of 7.5×10^5 cells/ml in Dulbecco's modified essential medium (Invitrogen) containing 0.25% BSA and Trasylol at 1000 KIE. FGF-2 and VEGF-A was used at 5 ng/ml, HRGP and the protein C inhibitor (PCI) at 100 ng/ml and BSA at 0.25%. After 5 h at 37° C., migrated cells were stained with Giemsa and counted using an image analysis software (Easy Image Analysis) from Tekno Optik AB, Sweden. All samples were analysed in at least six parallel wells for each treatment.

BCE cells = assay: endothelial cell adhesion to matrix proteins; type: cell-based, bovine; conditions: HRGP 100 ng/ml, serum-free medium, 45 min
Procedure: BCE cells were detached using non-enzymatic “Cell Dissociation Solution” (Sigma), washed and re-suspended in DMEM/0.1% BSA and FGF-2 (2 ng/ml). The cells were seeded in serum-free medium, with or without HRGP (100 ng/ml), into wells pre-coated with BSA, collagen I, collagen IV, laminin-1 or vitronectin, respectively (CytoMatrix ECM 205 kit, Chemicon). The cells were incubated for 45 (collagen I, collagen IV and vitronectin) or 60 minutes (laminin-1), washed three times in PBS and stained with Hoechst 33342 (1 μg/ml; Molecular Probes). The cells were micro-photographed using the 2× objective and the number of attached cells was counted using the “Easy Image Analysis” software (Tekno Optik). Statistical analysis was performed by ANOVA and Tukeys honestly significant difference (HSD) test. The standard deviation is based on the pooled variance.

Substance: HRGP: mature human Histidine Rich Glycoprotein, about 507 amino acid residues
- vessel diameter in tumours, visual inspection of CD31 staining ([1]; HRGP-treated vs control): reduced vessel diameter
- vascular parameters (length, volume, surface area of vessels related to tumour volume) ([1]; tumours from HRGP-treated vs IgG-treated mice): all six vascular parameters determined were reduced
- tumour apoptosis compared to control group (T241 fibrosarcoma cells; TUNEL staining, HRGP vs IgG control): No difference in tumour apoptosis
- percentage of apoptotic (TUNEL-positive) cells in the tumours (T241 fibrosarcoma cells; tumours from HRGP-treated mice): less than 1%
- proportion of proliferating (Ki67-positive) cells in tumours (T241 fibrosarcoma cells; tumours from HRGP-treated mice, control 43%): 29%
- FGF-2-induced chemotaxis of primary BCE cells (primary BCE cells [2]): inhibited
- plasma half-life [3]: three days
- growth factor-induced CAM angiogenesis (newly formed vessels) [4]: effectively inhibited
- FCS-induced chemotaxis of BCE cells (primary BCE cells [5]; 100 ng/ml HRGP): not inhibited
- VEGF-A-induced chemotaxis of BCE cells (primary BCE cells [5]; 100 ng/ml HRGP, VEGF-A 5 ng/ml): inhibited
- FGF-2-induced chemotaxis of BCE cells (primary BCE cells [5]; 100 ng/ml protein, FGF-2 5 ng/ml, 5 h): completely arrested
- endothelial cell adhesion to vitronectin, collagen I and collagen IV (BCE cells): decreases endothelial cell adhesion
